For 23 compounds, inhibition and Ki results are on record in US20130029962A1, “Substituted Heteroaromatic Pyrazole-Containing Carboxamide and Urea Compounds as Vanilloid Receptor Ligands” (Gruenenthal GmbH, priority 2011, published 2013).

The structures appear in SMILES notation.

The target in the first assay is T1, vanilloid receptor 1 (VR1/TRPV1 receptor) (Homo sapiens, UniProt Q8NER1).
T1 construct: expressed in transfected cells; host or cells: CHO K1
T1 sequence (Q8NER1 whole entry): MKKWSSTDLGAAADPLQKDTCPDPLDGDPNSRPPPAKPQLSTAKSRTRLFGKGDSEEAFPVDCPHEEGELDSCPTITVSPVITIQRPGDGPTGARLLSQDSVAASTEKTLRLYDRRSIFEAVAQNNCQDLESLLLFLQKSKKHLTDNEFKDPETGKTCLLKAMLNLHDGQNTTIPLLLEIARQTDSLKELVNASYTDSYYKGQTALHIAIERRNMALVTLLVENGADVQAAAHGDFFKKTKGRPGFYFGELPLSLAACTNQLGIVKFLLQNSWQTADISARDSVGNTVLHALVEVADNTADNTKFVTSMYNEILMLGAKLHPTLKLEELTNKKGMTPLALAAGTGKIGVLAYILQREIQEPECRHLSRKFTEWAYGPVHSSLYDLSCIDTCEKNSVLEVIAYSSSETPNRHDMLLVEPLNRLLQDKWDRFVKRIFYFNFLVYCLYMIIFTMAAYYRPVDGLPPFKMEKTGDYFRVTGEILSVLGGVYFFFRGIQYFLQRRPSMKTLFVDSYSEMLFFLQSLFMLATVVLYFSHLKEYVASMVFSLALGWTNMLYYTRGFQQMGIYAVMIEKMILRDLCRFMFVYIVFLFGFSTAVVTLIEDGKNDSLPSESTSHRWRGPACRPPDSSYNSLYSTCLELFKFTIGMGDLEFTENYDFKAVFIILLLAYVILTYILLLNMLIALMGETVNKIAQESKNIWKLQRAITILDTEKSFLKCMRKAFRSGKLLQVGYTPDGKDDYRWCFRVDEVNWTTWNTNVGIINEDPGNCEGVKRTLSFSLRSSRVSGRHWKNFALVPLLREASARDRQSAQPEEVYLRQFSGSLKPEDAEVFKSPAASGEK
In words: Functional testing on the vanilloid receptor 1 (VR1/TRPV1): FLIPR Ca2+ influx assay, displacement of capsaicin. The assay is classed as cell-based, human being. The settings on record: 5 μM compound; capsaicin (Cap); human being; read-out: inhibition (as a percentage) at the concentration after @, Cap. A digest of the protocol:
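Fluo-4 FLIPR Ca2+ influx in CHO K1 cells transfected with human VR1, measuring displacement of 100 nM capsaicin; rat VR1 agonism/antagonism also assessed in rat dorsal root ganglion neurons cultured 2–3 days at 37° C with 25 ng/mL NGF, then loaded with 2 μM Fluo-4.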
Turning to `COc1ncc(NC(=O)NCc2cc(C(F)(F)F)nn2-c2cccc(Cl)c2)cn1` [Example 130, 1-((1-(3-chlorophenyl)-3-(trifluoromethyl)-1H-pyrazol-5-yl)methyl)-3-(2-methoxypyrimidin-5-yl)urea], the inhibition at 5 µM came out at 47%.

The assay is the same for the next values; noted with them: capsaicin (Cap) as stimulus; Ki from IC50 by Cheng-Prusoff; read-out: (f) Ki (human being) [nM] Cap.
For the compound `CC(C(=O)NCc1cc(C(F)(F)F)nn1-c1cccc(Cl)c1)c1cnc(NS(C)(=O)=O)c(F)c1` (centres unmarked) [Example 103, N-((1-(3-chlorophenyl)-3-(trifluoromethyl)-1H-pyrazol-5-yl)methyl)-2-(5-fluoro-6-(methylsulfonamido)pyridin-3-yl)propanamide], the Ki stood at 12 nM. Regarding `COc1cc(C(C)C(=O)NCc2cc(C(F)(F)F)nn2-c2cccc(Cl)c2)cnc1NS(C)(=O)=O` (centres unmarked) [Example 104, N-((1-(3-chlorophenyl)-3-(trifluoromethyl)-1H-pyrazol-5-yl)methyl)-2-(5-methoxy-6-(methylsulfonamido)pyridin-3-yl)propanamide], the Ki is 3 nM. Regarding `COc1cc(C(C)C(=O)NCc2cc(C(C)(C)C)nn2-c2cccc(Cl)c2)cnc1NS(C)(=O)=O` (centres unmarked) [Example 105, N-((3-tert-butyl-1-(3-chlorophenyl)-1H-pyrazol-5-yl)methyl)-2-(5-methoxy-6-(methylsulfonamido)pyridin-3-yl)propanamide], the Ki turned out to be 2 nM. Still for that read-out and setting: the result for `CN(C)c1ncc(NC(=O)NCc2cc(C(F)(F)F)nn2-c2cccc(Cl)c2)cc1C(F)(F)F` [Example 106, 1-((1-(3-chlorophenyl)-3-(trifluoromethyl)-1H-pyrazol-5-yl)methyl)-3-(6-(dimethylamino)-5-(trifluoromethyl)pyridin-3-yl)urea] reads 25 nM. The same measure, in the same setting: the result for `CN(C)c1ncc(NC(=O)NCc2cc(C(C)(C)C)nn2-c2cccc(Cl)c2)cc1C(F)(F)F` [Example 107, 1-((3-tert-butyl-1-(3-chlorophenyl)-1H-pyrazol-5-yl)methyl)-3-(6-(dimethylamino)-5-(trifluoromethyl)pyridin-3-yl)urea] reads 5 nM; that for `CC(C)(C)c1cc(CNC(=O)Nc2ccc(N3CCC3)nc2)n(-c2cccc(Cl)c2)n1` [Example 108, 1-(6-(azetidin-1-yl)pyridin-3-yl)-3-((3-tert-butyl-1-(3-chlorophenyl)-1H-pyrazol-5-yl)methyl)urea], 43 nM. Same read-out and setting: the same measure for `O=C(NCc1cc(C(F)(F)F)nn1-c1cccc(Cl)c1)Nc1ccc(N2CCC2)nc1` [Example 109, 1-(6-(azetidin-1-yl)pyridin-3-yl)-3-((1-(3-chlorophenyl)-3-(trifluoromethyl)-1H-pyrazol-5-yl)methyl)urea]: 46 nM; for `CC(C)(C)c1cc(CNC(=O)Nc2ccc(N3CC(O)C3)nc2)n(-c2cccc(F)c2)n1` [Example 110, 1-((3-tert-butyl-1-(3-fluorophenyl)-1H-pyrazol-5-yl)methyl)-3-(6-(3-hydroxyazetidin-1-yl)pyridin-3-yl)urea]: 37 nM; for `O=C(NCc1cc(C(F)(F)F)nn1-c1cccc(Cl)c1)Nc1ccc(N2CC(O)C2)nc1` [Example 111, 1-((1-(3-chlorophenyl)-3-(trifluoromethyl)-1H-pyrazol-5-yl)methyl)-3-(6-(3-hydroxyazetidin-1-yl)pyridin-3-yl)urea]: 38 nM. `O=C(NCc1cc(C(F)(F)F)nn1-c1cccc(F)c1)Nc1ccc(N2CC(O)C2)nc1` [Example 112, 1-((1-(3-fluorophenyl)-3-(trifluoromethyl)-1H-pyrazol-5-yl)methyl)-3-(6-(3-hydroxyazetidin-1-yl)pyridin-3-yl)urea]: the Ki turned out to be 48 nM. Still for that read-out and setting: the result for `O=C(NCc1cc(C(F)(F)F)nn1-c1ccc(F)c(Cl)c1)Nc1ccc(N2CC(O)C2)nc1` [Example 113, 1-((1-(3-chloro-4-fluorophenyl)-3-(trifluoromethyl)-1H-pyrazol-5-yl)methyl)-3-(6-(3-hydroxyazetidin-1-yl)pyridin-3-yl)urea] reads 80 nM; that for `Cc1cccc(-n2nc(C(F)(F)F)cc2CNC(=O)Nc2ccc(N3CC(O)C3)nc2)c1` [Example 114, 1-(6-(3-hydroxyazetidin-1-yl)pyridin-3-yl)-3-((1-m-tolyl-3-(trifluoromethyl)-1H-pyrazol-5-yl)methyl)urea], 35 nM; that for `CC(C)c1cccc(-n2nc(C(F)(F)F)cc2CNC(=O)Nc2ccc(N3CC(O)C3)nc2)c1` [Example 115, 1-(6-(3-hydroxyazetidin-1-yl)pyridin-3-yl)-3-((1-(3-isopropylphenyl)-3-(trifluoromethyl)-1H-pyrazol-5-yl)methyl)urea], 2 nM. Same read-out and setting: the result for `CC(C)(C)c1cc(CNC(=O)Nc2ccc(N3CC(O)C3)nc2)n(-c2cccc(Cl)c2)n1` [Example 117, 1-((3-tert-butyl-1-(3-chlorophenyl)-1H-pyrazol-5-yl)methyl)-3-(6-(3-hydroxyazetidin-1-yl)pyridin-3-yl)urea] reads 18 nM. Still for that read-out and setting: the same measure for `CC(C)(C)c1cc(CNC(=O)Nc2ccc(N3CCCC3)nc2)n(-c2cccc(Cl)c2)n1` [Example 120, 1-((3-tert-butyl-1-(3-chlorophenyl)-1H-pyrazol-5-yl)methyl)-3-(6-(pyrrolidin-1-yl)pyridin-3-yl)urea]: 23 nM; for `O=C(NCc1cc(C(F)(F)F)nn1-c1cccc(Cl)c1)Nc1ccc(N2CCCC2)nc1` [Example 121, 1-((1-(3-chlorophenyl)-3-(trifluoromethyl)-1H-pyrazol-5-yl)methyl)-3-(6-(pyrrolidin-1-yl)pyridin-3-yl)urea]: 47 nM. As to `COc1cc(NC(=O)NCc2cc(C(F)(F)F)nn2-c2cccc(Cl)c2)cnc1N1CCCC1` [Example 123, 1-((1-(3-chlorophenyl)-3-(trifluoromethyl)-1H-pyrazol-5-yl)methyl)-3-(5-methoxy-6-(pyrrolidin-1-yl)pyridin-3-yl)urea], the Ki was found to be 83 nM. Still for that read-out and setting: the result for `O=C(NCc1cc(C(F)(F)F)nn1-c1cccc(Cl)c1)Nc1ccc(N2CC[C@@H](O)C2)nc1` [Example 124, (R)-1-((1-(3-chlorophenyl)-3-(trifluoromethyl)-1H-pyrazol-5-yl)methyl)-3-(6-(3-hydroxypyrrolidin-1-yl)pyridin-3-yl)urea] reads 64 nM; that for `O=C(NCc1cc(C(F)(F)F)nn1-c1cccc(Cl)c1)Nc1ccc(N2CC[C@H](O)C2)nc1` [Example 125, (S)-1-((1-(3-chlorophenyl)-3-(trifluoromethyl)-1H-pyrazol-5-yl)methyl)-3-(6-(3-hydroxypyrrolidin-1-yl)pyridin-3-yl)urea], 64 nM; that for `CC(C)(C)c1cc(CNC(=O)Nc2ccc(N3CC[C@@H](O)C3)nc2)n(-c2cccc(Cl)c2)n1` [Example 126, (R)-1-((3-tert-butyl-1-(3-chlorophenyl)-1H-pyrazol-5-yl)methyl)-3-(6-(3-hydroxypyrrolidin-1-yl)pyridin-3-yl)urea], 61 nM.

Turning to `CC(C)(C)c1cc(CNC(=O)Nc2ccc(N3CC[C@H](O)C3)nc2)n(-c2cccc(Cl)c2)n1` [Example 127, (S)-1-((3-tert-butyl-1-(3-chlorophenyl)-1H-pyrazol-5-yl)methyl)-3-(6-(3-hydroxypyrrolidin-1-yl)pyridin-3-yl)urea], the Ki stood at 61 nM. Consider `COc1ccc(C(C)C(=O)NCc2cc(C(F)(F)F)nn2-c2cccc(Cl)c2)cn1` (centres unmarked) [Example 129, N-((1-(3-chlorophenyl)-3-(trifluoromethyl)-1H-pyrazol-5-yl)methyl)-2-(6-methoxypyridin-3-yl)propanamide], for which the Ki turned out to be 13 nM.
